In ChEMBL document CHEMBL1155968, “Synthesis, anticonvulsant and CNS depressant activity of some new bioactive 1-(4-substituted-phenyl)-3-(4-oxo-2-phenyl/ethyl-4H-quinazolin-3-yl)-urea” (Eur J Med Chem, 2009) one finds Activity, inhibition in vivo and Time data, which are given here for 10 compounds.

Molecules are shown by their SMILES. Activity calls are given as the source filed them. The calls are words filed in the database; no cut-off is given here.

The subject of data set [1] is Mus musculus. In words: Anticonvulsant activity in ip dosed albino mouse assessed as inhibition of maximal electric shock-induced seizures after 0.5 hrs. Format: functional.
Data set [2] concerns Mus musculus. As to the kind of experiment: Anticonvulsant activity in ip dosed albino mouse assessed as inhibition of maximal electric shock-induced seizures after 4 hrs. Type of data set: functional.
In data set [3] the test system is Mus musculus. In words: Anticonvulsant activity in ip dosed albino mouse assessed as inhibition of subcutaneous pentylenetetrazole-induced seizure after 0.5 hrs. Format: functional.
In data set [4] the test system is Mus musculus. As to the kind of experiment: Neurotoxicity in ip dosed albino mouse assessed as minimal motor impairment after 0.5 hrs by rotarod test. Format: toxicity, organism-based. Particulars: in vivo.
For data set [5], the system named is Mus musculus. In words: Neurotoxicity in ip dosed albino mouse assessed as minimal motor impairment after 4 hrs by rotarod test. The following applies: in vivo. Format: toxicity, organism-based. For orientation: Falling from the rotarod earlier than controls is read as motor impairment.
Data set [6] deals with Mus musculus. In words: Behavioral activity in albino mouse assessed as decrease in locomotor activity at 100 mg/kg, ip by actophotometer. Type of data set: functional. The following applies: route intraperitoneal.
The subject of another data set is Rattus norvegicus. In words: Antidepressant activity in Wistar rat assessed as increase in immobility time at 100 mg/kg, ip after 60 min by forced swim pool method. Format: functional. The following applies: route intraperitoneal.
In data set [7] the test system is Mus musculus. In words: Anticonvulsant activity in ip dosed albino mouse assessed as inhibition of subcutaneous pentylenetetrazole-induced seizure after 4 hrs. Type of data set: functional.

As to `O=C(Nc1ccc(Cl)cc1)Nn1c(-c2ccccc2)nc2ccccc2c1=O`, the Activity with Mus musculus [1] is 300 mg/kg; with Mus musculus [3] it was 300 mg/kg; in the data set on Mus musculus [4], 300 mg/kg; in the data set on Mus musculus [5], “Not Active”. In addition, the outcome with Mus musculus [2] and with Mus musculus [7] was inactive. Besides, in the data set on Mus musculus [6], the inhibition in vivo at 100 mg/kg amounted to 55%. In addition, the Time in the data set on Rattus norvegicus is 218.5 s.
As for `CCc1nc2ccccc2c(=O)n1NC(=O)Nc1ccc(Cl)cc1`, the outcome with Mus musculus [1], in the data set on Mus musculus [2], in the data set on Mus musculus [3] and in the data set with Mus musculus [7] was inactive. Besides, in the data set with Mus musculus [4], the Activity result was “Not Active”. Further, the inhibition in vivo at 100 mg/kg in the data set with Mus musculus [6] worked out at 52%. Moreover, in the data set with Rattus norvegicus, the Time is reported as 180.3 s.
On to `CCCC(CCC)C(=O)[O-].[Na+]` [VALPROATE SODIUM], for which the Activity in the data set on Mus musculus [1] came to 100 mg/kg; in the data set on Mus musculus [2] it was 30 mg/kg; in the data set with Mus musculus [3], 30 mg/kg; in the data set with Mus musculus [4], 100 mg/kg; in the data set with Mus musculus [5] it was 300 mg/kg; in the data set with Mus musculus [7] it was 300 mg/kg.
As for `CCC1(c2ccccc2)C(=O)NC(=O)NC1=O` [PHENOBARBITAL], the result with Mus musculus [1], in the data set with Mus musculus [2] and in the data set on Mus musculus [7] was inactive. Moreover, the Activity is 300 mg/kg in the data set with Mus musculus [3], “Not Active” in the data set on Mus musculus [4] and “Not Active” in the data set with Mus musculus [5].
With `O=C(Nc1ccc(I)cc1)Nn1c(-c2ccccc2)nc2ccccc2c1=O`, the result in the data set on Mus musculus [1] and with Mus musculus [2] was inactive. The Activity in the data set with Mus musculus [4] is 300 mg/kg; in the data set on Mus musculus [5], “Not Active”. Also, the inhibition in vivo at 100 mg/kg in the data set on Mus musculus [6] came out at 60%. Also, in the data set on Rattus norvegicus, the Time was determined as 181.15 s.
As to `O=C1NC(=O)C(c2ccccc2)(c2ccccc2)N1` [PHENYTOIN], the Activity was 30 mg/kg in the data set with Mus musculus [1]; 100 mg/kg in the data set on Mus musculus [2]; 100 mg/kg in the data set on Mus musculus [3]; 100 mg/kg with Mus musculus [4]; 300 mg/kg in the data set on Mus musculus [5]; 300 mg/kg in the data set on Mus musculus [7]. Further, the inhibition in vivo at 100 mg/kg in the data set on Mus musculus [6] was 69%.
`CCc1nc2ccccc2c(=O)n1NC(=O)Nc1ccc(I)cc1`: the outcome with Mus musculus [1], in the data set with Mus musculus [2] and in the data set with Mus musculus [7] was inactive. For the same compound, the Activity entry in the data set on Mus musculus [4] and in the data set with Mus musculus [5] was “Not Active” each time. In the data set on Mus musculus [6], the inhibition in vivo at 100 mg/kg is 55%. Moreover, the Time with Rattus norvegicus was 274.4 s.
As to `CCc1nc2ccccc2c(=O)n1NC(=O)Nc1ccc(Br)cc1`, the outcome in the data set on Mus musculus [1] and with Mus musculus [2] was inactive. The Activity with Mus musculus [4] is 300 mg/kg; in the data set on Mus musculus [5], “Not Active”. The inhibition in vivo at 100 mg/kg in the data set on Mus musculus [6] came to 54%. In addition, the Time in the data set with Rattus norvegicus is given as 222.2 s.
Regarding `CCc1nc2ccccc2c(=O)n1NC(=O)Nc1ccc(OC)cc1`, the outcome with Mus musculus [1], with Mus musculus [2], in the data set with Mus musculus [3] and with Mus musculus [7] was inactive. Besides, the Activity with Mus musculus [4] is 300 mg/kg. Further, in the data set with Mus musculus [6], the inhibition in vivo at 100 mg/kg was 48%. Further, in the data set on Rattus norvegicus, the Time was 141.17 s.
`CCc1nc2ccccc2c(=O)n1NC(=O)Nc1ccccc1`: the Activity in the data set with Mus musculus [1] was found to be 100 mg/kg; in the data set on Mus musculus [3], 300 mg/kg; in the data set on Mus musculus [4], 300 mg/kg. The outcome in the data set with Mus musculus [2] and in the data set on Mus musculus [7] was inactive. The inhibition in vivo at 100 mg/kg with Mus musculus [6] worked out at 54%. Moreover, the Time with Rattus norvegicus was 170.1 s.

As a reminder, the inhibition in vivo is the change of the read-out against control, counted positive when it falls.
